Measured values from ChEMBL document CHEMBL1201862, “PubChem BioAssay data set” (2004).
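48-hour exposure; five concentrations; linearly interpolated endpoints. GI50 marks 50% less growth.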 Activity calls are given as the source filed them. Cut-off read from the data, not from the text of the source: active = GI50 up to about 1.1 µM and inactive = higher.

Columns and labels:
Assay in all cases: NCI-60 cell line screen, 48 h
Malme-3M = test system: Malme-3M
A498 = test system: A498
M14 = test system: M14
CCRF-CEM = test system: CCRF-CEM
HCC 2998 = test system: HCC 2998
OVCAR-3 = test system: OVCAR-3
OVCAR-5 = test system: OVCAR-5
ACHN = test system: ACHN
K562 = test system: K562
786-0 = test system: 786-0
IGROV-1 = test system: IGROV-1
SW-620 = test system: SW-620
UACC-257 = test system: UACC-257
NCI-H226 = test system: NCI-H226
A549 = test system: A549
U-251 = test system: U-251

Measured: GI50

CCC(=O)CCC1=Nc2nnc(CCCCc3nnc4n3C(=O)C(CCC(=O)CC)=N4)n2C1=O
inactive: Malme-3M > 100 µM | A498 > 100 µM | M14 > 100 µM | CCRF-CEM > 100 µM | HCC 2998 > 100 µM | OVCAR-3 > 100 µM | OVCAR-5 > 100 µM | ACHN > 100 µM | K562 > 100 µM | 786-0 > 100 µM | IGROV-1 > 100 µM | SW-620 > 100 µM | UACC-257 > 100 µM | NCI-H226 > 100 µM | A549 > 100 µM

C[N+](C)=c1nc(N2CCOCC2)ss1
inactive: A498 4.14 µM | M14 > 100 µM | CCRF-CEM > 100 µM | HCC 2998 > 100 µM | OVCAR-5 > 100 µM | ACHN > 100 µM | K562 > 100 µM | 786-0 > 100 µM | IGROV-1 > 100 µM | SW-620 > 100 µM | U-251 > 100 µM | UACC-257 > 100 µM | NCI-H226 > 100 µM | A549 47.3 µM

[O-][S+]1[C@H](c2ccccc2)c2c(-c3ccccc3)sc(-c3ccccc3)c2[C@@H]1c1ccccc1 (some centres not stated)
inactive: Malme-3M 23.4 µM | M14 85.9 µM | CCRF-CEM 89.7 µM | HCC 2998 > 100 µM | OVCAR-3 > 100 µM | OVCAR-5 3.66 µM | ACHN 5.89 µM | K562 6.44 µM | 786-0 29.3 µM | IGROV-1 > 100 µM | SW-620 13.2 µM | U-251 9.44 µM | UACC-257 > 100 µM | A549 10.8 µM

O=C1C=C(N2CCCC2)C=C(N2CCCC2)C1
inactive: Malme-3M > 100 µM | M14 > 100 µM | CCRF-CEM > 100 µM | HCC 2998 > 100 µM | OVCAR-3 75.5 µM | OVCAR-5 > 100 µM | ACHN > 100 µM | K562 > 100 µM | 786-0 > 100 µM | IGROV-1 > 100 µM | SW-620 > 100 µM | U-251 > 100 µM | UACC-257 > 100 µM | NCI-H226 > 100 µM | A549 > 100 µM

N#CCCN(CCC#N)c1ccc(/C=C(/NC(=O)c2cc([N+](=O)[O-])ccc2Cl)C(=O)NN)cc1
inactive: Malme-3M > 100 µM | A498 > 100 µM | M14 > 100 µM | CCRF-CEM 47.5 µM | HCC 2998 > 100 µM | OVCAR-3 77.8 µM | OVCAR-5 > 100 µM | ACHN > 100 µM | K562 > 100 µM | 786-0 > 100 µM | IGROV-1 > 100 µM | SW-620 > 100 µM | U-251 > 100 µM | UACC-257 > 100 µM | NCI-H226 > 100 µM | A549 > 100 µM

Cc1cccc(NC2=NC(=O)C(CC(=O)Nc3cccc(C)c3C)S2)c1 (configuration not stated)
inactive: Malme-3M > 100 µM | M14 > 100 µM | CCRF-CEM 25.8 µM | HCC 2998 > 100 µM | OVCAR-3 > 100 µM | OVCAR-5 > 100 µM | ACHN > 100 µM | 786-0 > 100 µM | IGROV-1 > 100 µM | SW-620 > 100 µM | U-251 > 100 µM | UACC-257 > 100 µM | NCI-H226 > 100 µM | A549 > 100 µM

Oc1ccccc1/C=N/Cc1ccco1
inactive: Malme-3M > 100 µM | A498 > 100 µM | M14 > 100 µM | CCRF-CEM > 100 µM | OVCAR-3 > 100 µM | OVCAR-5 > 100 µM | ACHN > 100 µM | K562 > 100 µM | 786-0 > 100 µM | IGROV-1 > 100 µM | SW-620 > 100 µM | U-251 > 100 µM | UACC-257 > 100 µM | NCI-H226 > 100 µM | A549 > 100 µM

O=C(Nc1cccc2ccccc12)Oc1ccccc1C1CCCCC1
inactive: Malme-3M 17.7 µM | A498 17.6 µM | M14 18.1 µM | CCRF-CEM 15 µM | HCC 2998 18.5 µM | OVCAR-3 18.6 µM | OVCAR-5 17.3 µM | K562 24.2 µM | IGROV-1 23 µM | SW-620 20.6 µM | U-251 13.4 µM | UACC-257 15.5 µM | NCI-H226 18.2 µM | A549 21.4 µM

NC(=O)C12CC3CC(CC(F)(C3)C1)C2
inactive: Malme-3M > 100 µM | A498 > 100 µM | M14 > 100 µM | CCRF-CEM > 100 µM | HCC 2998 > 100 µM | OVCAR-3 > 100 µM | OVCAR-5 > 100 µM | ACHN > 100 µM | K562 > 100 µM | 786-0 > 100 µM | IGROV-1 > 100 µM | SW-620 > 100 µM | U-251 > 100 µM | UACC-257 > 100 µM | A549 > 100 µM

CC#COS(=O)(=O)c1ccc(C)cc1
inactive: Malme-3M 88.3 µM | A498 > 10 µM | M14 35.6 µM | CCRF-CEM 27.9 µM | HCC 2998 > 100 µM | OVCAR-3 60.5 µM | OVCAR-5 > 100 µM | ACHN 58.2 µM | K562 36.8 µM | 786-0 44.4 µM | IGROV-1 > 100 µM | SW-620 42.7 µM | U-251 > 100 µM | UACC-257 47.5 µM | NCI-H226 89.3 µM | A549 44.3 µM

CC(=O)OCC1OC(n2c(=S)n(-c3ccccc3)c(=O)c3cc(Br)ccc32)C(OC(C)=O)C1OC(C)=O (configuration not stated)
inactive: Malme-3M > 100 µM | A498 > 100 µM | M14 > 100 µM | HCC 2998 > 100 µM | OVCAR-3 > 100 µM | OVCAR-5 > 100 µM | ACHN > 100 µM | 786-0 > 100 µM | IGROV-1 > 100 µM | SW-620 > 100 µM | U-251 > 100 µM | UACC-257 > 100 µM | NCI-H226 > 100 µM | A549 > 100 µM

COc1cc2ccc(/C(C)=N/OC(C)=O)cc2cc1OC
inactive: Malme-3M > 100 µM | A498 22.8 µM | M14 > 100 µM | CCRF-CEM 66.5 µM | OVCAR-3 34.1 µM | OVCAR-5 63.4 µM | ACHN 65.3 µM | K562 94 µM | 786-0 > 100 µM | IGROV-1 > 100 µM | SW-620 > 100 µM | U-251 86.9 µM | UACC-257 > 100 µM | NCI-H226 53.6 µM | A549 > 100 µM

C=CCC1C(=O)C(C(=O)OC)N2CCc3c([nH]c4ccccc34)C12 (configuration not stated)
inactive: Malme-3M > 100 µM | A498 > 100 µM | M14 > 100 µM | CCRF-CEM 95.5 µM | HCC 2998 > 100 µM | OVCAR-3 > 100 µM | OVCAR-5 > 100 µM | K562 > 100 µM | 786-0 > 100 µM | IGROV-1 > 100 µM | SW-620 > 100 µM | U-251 > 100 µM | A549 > 100 µM

CC(=O)Oc1c(-c2ccccc2)[nH]c2cc([N+](=O)[O-])c(/C(Cl)=C/c3ccccc3)cc12
inactive: Malme-3M 4.1 µM | A498 2.88 µM | M14 7.73 µM | CCRF-CEM 3.61 µM | HCC 2998 4.6 µM | OVCAR-3 7.66 µM | OVCAR-5 4.22 µM | ACHN 5.4 µM | K562 3.82 µM | 786-0 11.2 µM | IGROV-1 9.46 µM | SW-620 8.89 µM | U-251 4.52 µM | UACC-257 5.77 µM | NCI-H226 4 µM | A549 6.15 µM

O=C(CC/C(CC(=O)c1ccc(Cl)cc1)=N/O)Nc1ccc(Cl)c(Cl)c1
inactive: Malme-3M > 100 µM | A498 > 100 µM | M14 > 100 µM | CCRF-CEM > 100 µM | OVCAR-3 > 100 µM | OVCAR-5 24 µM | ACHN 31.8 µM | K562 50.4 µM | 786-0 > 100 µM | IGROV-1 47.6 µM | SW-620 > 100 µM | U-251 > 100 µM | UACC-257 > 100 µM | NCI-H226 > 100 µM | A549 > 100 µM

CCOc1ccc2nc(NC(=O)C(=O)C(C(=O)c3ccccc3F)C3OC(=O)c4ccccc43)sc2c1 (configuration not stated)
inactive: A498 25.8 µM | M14 16.5 µM | CCRF-CEM 12.3 µM | HCC 2998 15.9 µM | ACHN 33.2 µM | K562 21.8 µM | IGROV-1 25.6 µM | SW-620 19.3 µM | U-251 11.1 µM | UACC-257 41.3 µM | NCI-H226 5.01 µM | A549 31.6 µM

COc1ccc(CC(=O)NCCc2ccc(OC)c(OC)c2)cc1Br
inactive: Malme-3M > 100 µM | A498 > 100 µM | CCRF-CEM > 100 µM | HCC 2998 > 100 µM | OVCAR-5 57.1 µM | ACHN > 100 µM | K562 > 100 µM | 786-0 > 100 µM | IGROV-1 > 100 µM | SW-620 > 100 µM | U-251 > 100 µM | UACC-257 > 100 µM | NCI-H226 41.5 µM | A549 > 100 µM

CC1=C2CC[C@@]3(C)C(=CCC3O)C2(C)CCC1=O (some centres not stated)
inactive: Malme-3M > 100 µM | A498 91.6 µM | M14 > 100 µM | CCRF-CEM > 100 µM | HCC 2998 > 100 µM | OVCAR-3 > 100 µM | OVCAR-5 > 100 µM | ACHN > 100 µM | 786-0 > 100 µM | IGROV-1 > 100 µM | SW-620 > 100 µM | U-251 > 100 µM | UACC-257 > 100 µM | NCI-H226 > 100 µM | A549 > 100 µM
